Columns and labels:
Assay type in all cases: cell-based
[1] = biological target: T1, α1β2 GABAA receptor (α1 subunit) (Homo sapiens, UniProt P14867+P47870); test: voltage clamp: reduction of CGS […] potentiation (data not shown); […] [3H]flumazenil displacement at […] in bovine membranes
T1 construct: gene GABRA1; recombinant α1β2 receptor (devoid of the γ subunit) in Xenopus laevis oocytes; with GABAA receptor β2 subunit (GABRB2)
T1 sequence (P14867 28-456): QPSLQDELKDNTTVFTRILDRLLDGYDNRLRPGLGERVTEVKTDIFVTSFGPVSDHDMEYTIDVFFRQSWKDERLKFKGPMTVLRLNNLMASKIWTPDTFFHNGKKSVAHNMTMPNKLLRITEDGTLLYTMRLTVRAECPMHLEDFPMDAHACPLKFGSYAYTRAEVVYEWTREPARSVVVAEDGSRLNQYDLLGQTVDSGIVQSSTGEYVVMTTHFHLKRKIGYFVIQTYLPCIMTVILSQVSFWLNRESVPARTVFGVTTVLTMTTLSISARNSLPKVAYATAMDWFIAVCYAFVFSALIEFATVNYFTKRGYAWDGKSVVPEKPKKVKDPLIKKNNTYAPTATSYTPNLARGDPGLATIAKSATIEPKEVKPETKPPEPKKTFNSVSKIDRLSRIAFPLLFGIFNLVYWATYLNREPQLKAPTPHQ
T1 sequence (P47870 26-512): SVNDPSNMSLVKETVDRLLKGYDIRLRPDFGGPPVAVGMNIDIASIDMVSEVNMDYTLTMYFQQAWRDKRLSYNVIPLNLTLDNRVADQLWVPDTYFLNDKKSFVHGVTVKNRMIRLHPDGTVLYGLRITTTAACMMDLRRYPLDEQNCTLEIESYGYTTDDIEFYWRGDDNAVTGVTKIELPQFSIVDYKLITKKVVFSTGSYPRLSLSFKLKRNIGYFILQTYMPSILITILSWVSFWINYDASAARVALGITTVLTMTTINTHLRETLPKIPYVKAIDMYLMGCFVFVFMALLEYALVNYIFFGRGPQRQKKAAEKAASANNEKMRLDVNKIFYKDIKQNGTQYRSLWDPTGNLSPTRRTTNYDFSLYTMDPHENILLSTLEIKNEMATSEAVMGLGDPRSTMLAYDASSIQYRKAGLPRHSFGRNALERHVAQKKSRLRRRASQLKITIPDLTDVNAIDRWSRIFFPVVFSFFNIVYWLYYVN

[2] = biological target: T2, α1β2γ2L GABAA receptor (α1 subunit) (Homo sapiens, UniProt P14867+P18507); test: two-electrode voltage clamp of GABA currents in oocytes; also […] [3H]flumazenil displacement at […] in bovine membranes
T2 construct: gene GABRA1; recombinant α1β2γ2L receptor in Xenopus laevis oocytes; with GABAA receptor β2 (GABRB2) and γ2L (GABRG2) subunits
T2 sequence (P18507 40-475, one chain of several): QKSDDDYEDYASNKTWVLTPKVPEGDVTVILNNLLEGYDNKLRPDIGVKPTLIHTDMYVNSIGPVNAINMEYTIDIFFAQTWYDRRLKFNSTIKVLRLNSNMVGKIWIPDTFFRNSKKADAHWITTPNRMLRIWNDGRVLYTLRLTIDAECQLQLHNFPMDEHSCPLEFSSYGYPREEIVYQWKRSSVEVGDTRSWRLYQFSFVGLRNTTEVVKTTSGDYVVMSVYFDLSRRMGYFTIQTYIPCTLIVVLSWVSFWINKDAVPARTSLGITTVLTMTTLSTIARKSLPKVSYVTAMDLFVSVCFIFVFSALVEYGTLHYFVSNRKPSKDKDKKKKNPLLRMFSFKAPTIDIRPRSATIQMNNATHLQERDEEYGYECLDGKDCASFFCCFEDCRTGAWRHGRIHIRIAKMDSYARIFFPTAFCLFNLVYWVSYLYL

[3] = biological target: T1, α1β2 GABAA receptor (α1 subunit); test: voltage clamp: block of CGS […] potentiation (data not shown); […] [3H]flumazenil displacement at […] in bovine membranes

SMILES: COc1ccc2cnc3c(-c4ccsc4)cnn3c2c1 [5e, 3-(Thien-3-yl)-8-methoxypyrazolo[1,5-a]quinazoline]
- voltage clamp: reduction of CGS 9895 potentiation (data not shown); >80% [3H]flu [1]: compounds 5d and 5e, which in the same test completely blocked or strongly reduced the potentiation of the GABAA receptor function

SMILES: COc1ccc2cnc3c(C(=O)c4cccs4)cnn3c2c1 [6b, 3-(Thien-2-ylcarbonyl)-8-methoxypyrazolo[1,5-a]quinazoline]
- EC50 [2]: 12 µM

SMILES: COc1ccc2cnc3c(-c4cccs4)cnn3c2c1 [5d, 3-(Thien-2-yl)-8-methoxypyrazolo[1,5-a]quinazoline]
- voltage clamp: block of CGS 9895 potentiation (data not shown); >80% [3H]flumaze [3]: compounds 5d and 5e, which in the same test completely blocked or strongly reduced the potentiation of the GABAA receptor function

From publication PMC6470557, “Synthesis of New GABAA Receptor Modulator with Pyrazolo[1,5-a]quinazoline (PQ) Scaffold” (International Journal of Molecular Sciences, 2019)
